≈ marks a conversion by molar mass, not a printed value.
Key:
Assay type in all cases: functional, organism-based
[1] = test system: Leishmania donovani; test: Antileishmanial activity against Leishmania donovani promastigotes
[2] = test system: Leishmania donovani; test: Antileishmanial activity against Leishmania donovani amastigotes
[3] = test system: Plasmodium falciparum; test: Antimalarial activity against chloroquine and quinine sensitive Plasmodium falciparum

IC50 [1]	IC50 [2]	SMILES	IC50 [3]
1.34 to 3.26 µg/mL (≈ 6.37 to 15.5 µM)	1.34 to 3.26 µg/mL (≈ 6.37 to 15.5 µM)	CSC(=S)/C=C(\O)c1ccccc1	–
1.34 to 3.26 µg/mL (≈ 5.97 to 14.5 µM)	1.34 to 3.26 µg/mL (≈ 5.97 to 14.5 µM)	CSC(=S)/C=C(\O)c1ccc(C)cc1	–
1.34 to 3.26 µg/mL (≈ 5.97 to 14.5 µM)	1.34 to 3.26 µg/mL (≈ 5.97 to 14.5 µM)	CSC(=S)/C=C(\O)c1cccc(C)c1	–
1.34 to 3.26 µg/mL (≈ 5.58 to 13.6 µM)	1.34 to 3.26 µg/mL (≈ 5.58 to 13.6 µM)	COc1ccc(/C(O)=C/C(=S)SC)cc1	–
1.34 to 3.26 µg/mL (≈ 4.81 to 11.7 µM)	1.34 to 3.26 µg/mL (≈ 4.81 to 11.7 µM)	CSC(=S)/C=C(\O)c1ccc(C(F)(F)F)cc1	–

More lines, now with the values behind:

SMILES	IC50 [1]	IC50 [2]	IC50 [3]
Nc1ccccc1C(=O)c1ccccc1	1.34 to 3.26 µg/mL (≈ 6.79 to 16.5 µM)	1.34 to 3.26 µg/mL (≈ 6.79 to 16.5 µM)	–
Nc1ccc(Cl)cc1C(=O)c1ccccc1	1.34 to 3.26 µg/mL (≈ 5.78 to 14.1 µM)	1.34 to 3.26 µg/mL (≈ 5.78 to 14.1 µM)	–
CSC(=S)/C=C(\O)c1ccccc1Cl	1.34 to 3.26 µg/mL (≈ 5.47 to 13.3 µM)	1.34 to 3.26 µg/mL (≈ 5.47 to 13.3 µM)	–
CSC(=S)/C=C(\O)c1ccco1	1.34 to 3.26 µg/mL (≈ 6.69 to 16.3 µM)	1.34 to 3.26 µg/mL (≈ 6.69 to 16.3 µM)	–
CSC(=S)/C=C(\O)c1cccs1	1.34 to 3.26 µg/mL (≈ 6.19 to 15.1 µM)	1.34 to 3.26 µg/mL (≈ 6.19 to 15.1 µM)	–
CCCCCCCCCCCCCCCCOP(=O)([O-])OCC[N+](C)(C)C [MILTEFOSINE]	4.54 µg/mL (≈ 11.1 µM)	8.2 µg/mL (≈ 20.1 µM)	–
C=C[C@H]1CN2CC[C@H]1C[C@H]2[C@H](O)c1ccnc2ccc(OC)cc12 [QUININE]	–	–	0.268 µg/mL (≈ 0.826 µM)
